This note sets out measurements from patent US11371013B2, “Culture medium composition and method of culturing cell or tissue using thereof” (Nissan Chemical Industries, Ltd., priority 2012, dated 2022).

Common to all, as to assay type: cell-based, human
Assay [1] deals with HeLa cells. The experiment in a line: Comparison with single layer culture method in cell proliferation test using agent for inducing apoptosis. To be noted: day 4. The protocol:
(§1) This aqueous solution was sterilized at 121° C. for 20 min in an autoclave.
Each plate was cultured by being stood still in a CO2 incubator (37° C., 5% CO2). […] To the culture medium on day 4 was added an ATP reagent (150 μL) (CellTiter-Glo (registered trade mark) Luminescent Cell Viability Assay, manufactured by Promega) to give a suspension, which was stood for about 10 min at room temperature, and the luminescence intensity (RLU value) was measured by FlexStation3 (manufactured by Molecular Devices), and the number of viable cells was measured by subtracting the luminescence value of the medium alone. For WST-8 measurement, a WST-8 solution (manufactured by is DOJINDO Laboratories, 15 μL) was added, the mixture was incubated at 37° C. for 100 min, the absorbance at 450 nm was measured by an absorbance spectrometer (manufactured by Molecular Devices, SPECTRA MAX 190), and the number of viable cells was measured by subtracting the absorbance of the medium alone.

Assay [2] relates to HeLa cells. The experiment in a line: Cell proliferation test using various anticancer drugs. As to conditions: HeLa cells 5 days later, DAG 0.030% medium. The method, then: This aqueous solution was sterilized at 121° C. for 20 min in an autoclave. […] The anticancer drug used was Adriamycin (manufactured by WAKO), Paclitaxel (manufactured by WAKO) or Mitomycin C (manufactured by WAKO).
Successively, this plate was cultured by being stood still in a CO2 incubator (37° C., 5% CO2) for 7 days. After culturing for 3, 5, 7 days, to the culture medium was added a WST-8 solution (manufactured by DOJINDO Laboratories, 20 μL), and the mixture was incubated at 37° C. for 100 min. The absorbance at 450 nm was measured by an absorbance spectrometer (manufactured by Molecular Devices, SPECTRA MAX 190), and the number of viable cells was measured by subtracting the absorbance of the medium alone. The culture medium containing the cells after 5 days of culture was stirred with a pipette and the obtained stirred solution (20 μL) was mixed with Trypan Blue stain 0.4% (manufactured by Invitrogen, 20 μL) and the cell density was measured under a microscope.

In assay [3] the test system is HeLa cells. The assay can be described thus: HeLa cell proliferation test using Trametinib and MK-2206. As to conditions: drug from day 1 for 5 days. The method, then:
as §1
(§2) Each plate was cultured by being stood still in a CO2 incubator (37° C., 5% CO2). […] The anticancer drugs used were Trametinib (manufactured by Santa Cruz, MEK inhibitor) and MK-2206 (manufactured by Santa Cruz, Akt inhibitor). To the culture medium on day 6 was added an ATP reagent (150 μL) (CellTiter-Glo (registered trade mark) Luminescent Cell Viability Assay, manufactured by Promega) to give a suspension, which was stood for about 10 min at room temperature, and the luminescence intensity (RLU value) was measured by FlexStation3 (manufactured by Molecular Devices), and the number of viable cells was measured by subtracting the luminescence value of the medium alone.

A further assay deals with A549 cells. The assay can be described thus: A549 cell proliferation test using Trametinib and MK-2206. As to conditions: drug from day 1 for 5 days. The method, then:
This aqueous solution was sterilized at 121° C. for 20 min is in an autoclave.
as §2

[4] abbreviates: 1 μM, deacylated gellan gum addition group (0.015%).
The mark [5] stands for this setting: 1 μM, single layer culture group.
[6] abbreviates: 10 μM, deacylated gellan gum addition group (0.015%).
Where [7] appears, read: 10 μM, single layer culture group.
Where [8] appears, read: 100 μM, deacylated gellan gum addition group (0.015%).
[9] abbreviates: 100 μM, single layer culture group.
Setting [10] is: 0.03 μM, deacylated gellan gum addition group (0.015%).
Setting [11] is: 0.03 μM, single layer culture group.
The mark [12] stands for this setting: 0.3 μM, deacylated gellan gum addition group (0.015%).
[13] abbreviates: 0.3 μM, single layer culture group.
[14] abbreviates: 3 μM, deacylated gellan gum addition group (0.015%).
[15] abbreviates: 3 μM, single layer culture group.
Where [16] appears, read: 30 μM, deacylated gellan gum addition group (0.015%).
Setting [17] is: 30 μM, single layer culture group.
Setting [18] is: 0.001 μM, single layer culture group.
Where [19] appears, read: 0.003 μM, deacylated gellan gum addition group (0.015%).
Where [20] appears, read: 0.003 μM, single layer culture group.
The mark [21] stands for this setting: 0.01 μM, deacylated gellan gum addition group (0.015%).
Setting [22] is: 0.01 μM, single layer culture group.
[23] abbreviates: 0.001 μM, deacylated gellan gum addition group (0.015%).
Where [24] appears, read: 0.1 μM, deacylated gellan gum addition group (0.015%).
Setting [25] is: 0.1 μM, single layer culture group.

Starred links: 1 amine or outer side, 2 acyl side, 3 side chain; linkers in the order of their positions; H or OH if unused. Positions of bridges follow the written chain, without caps; N, C: chain ends. Non-standard residues stand in square brackets, D forms with d. Residues, ends and D or L forms follow the SMILES beside them. Chains are numbered I, II in the order given. Actinocin(9to1) = Cc1c2oc3c(C)ccc(C(=O)[*:1])c3nc-2c(C(=O)[*:2])c(N)c1=O; NMeV = CN[C@H](C(=O)O)C(C)C; Sar = CNCC(=O)O

Take `Cc1c2oc3c(C)ccc(C(=O)N[C@@H]4C(=O)N[C@H](C(C)C)C(=O)N5CCC[C@H]5C(=O)N(C)CC(=O)N(C)[C@@H](C(C)C)C(=O)O[C@@H]4C)c3nc-2c(C(=O)N[C@@H]2C(=O)N[C@H](C(C)C)C(=O)N3CCC[C@H]3C(=O)N(C)CC(=O)N(C)[C@@H](C(C)C)C(=O)O[C@@H]2C)c(N)c1=O` [Actinomycin D] (I: T[dV]P[Sar][NMeV] / II: T[dV]P[Sar][NMeV]; ester I:1-I:C, II:1-II:C; linker I:N-II:N via Actinocin(9to1)): the “% Control of RLU value (ATP)” value came to 4 % Control in the assay on HeLa cells [1] (setting [4]), 2 % Control in the assay with HeLa cells [1] (setting [5]), 6 % Control in the assay with HeLa cells [1] (setting [6]) and 2 % Control in the assay on HeLa cells [1] (setting [7]). For the same compound, the “% Control of absorbance at 450 nm (WST-8)” value (“% Control of absorbance” for short) in the assay on HeLa cells [1] (setting [4]) is 3 % Control; in the assay with HeLa cells [1] (setting [5]) it was 2 % Control; in the assay with HeLa cells [1] (setting [6]), 12 % Control; with HeLa cells [1] (setting [7]) it was 4 % Control.

Regarding `COc1cccc2c1C(=O)c1c(O)c3c(c(O)c1C2=O)C[C@@](O)(C(=O)CO)C[C@@H]3O[C@H]1C[C@H](N)[C@H](O)[C@H](C)O1` [Adriamycin], the cell density in the assay with HeLa cells [2] (1 μM) was 0.6 10^4 cells/mL.

In the case of `C[C@@H]1C[C@@H]([C@H](O)CC2CC(=O)NC(=O)C2)C(=O)[C@@H](C)C1` [Cycloheximide], the “% Control of RLU value (ATP)” value with HeLa cells [1] (setting [6]) is given as 9 % Control; with HeLa cells [1] (setting [7]), 29 % Control; in the assay on HeLa cells [1] (setting [8]), 4 % Control; with HeLa cells [1] (setting [9]), 9 % Control. In addition, the “% Control of absorbance” value turned out to be 4 % Control in the assay on HeLa cells [1] (setting [6]), 21 % Control in the assay on HeLa cells [1] (setting [7]), 1 % Control in the assay with HeLa cells [1] (setting [8]) and 7 % Control with HeLa cells [1] (setting [9]).

On to `C[C@@H]1C[C@H]2[C@@H]3CCC4=CC(=O)C=C[C@]4(C)[C@@]3(F)[C@@H](O)C[C@]2(C)[C@@]1(O)C(=O)CO` [Dexamethasone], for which the figures for the “% Control of RLU value (ATP)” value with HeLa cells [1] (setting [4]), in the assay with HeLa cells [1] (setting [6]) and with HeLa cells [1] (setting [7]) were 232 % Control, 241 % Control and 116 % Control, respectively. Besides, the “% Control of absorbance” value in the assay with HeLa cells [1] (setting [4]) came to 184 % Control; with HeLa cells [1] (setting [6]), 173 % Control.

Take `NC1(c2ccc(-c3nc4ccn5c(=O)[nH]nc5c4cc3-c3ccccc3)cc2)CCC1` [MK-2206]: the “% Control of RLU value (ATP)” value was found to be 57 % Control in the assay with HeLa cells [3] (setting [10]); 93 % Control in the assay with HeLa cells [3] (setting [11]); 21 % Control with HeLa cells [3] (setting [12]); 84 % Control in the assay with HeLa cells [3] (setting [13]); 21 % Control with HeLa cells [3] (setting [14]); 69 % Control in the assay on HeLa cells [3] (setting [15]). Further, the “% Control of RLU value (ATP)” value is recorded as 0 % Control with HeLa cells [3] (setting [16]); 0 % Control in the assay with HeLa cells [3] (setting [17]); 84 % Control in the assay on A549 cells (setting [10]); 93 % Control in the assay on A549 cells (setting [11]); 45 % Control in the assay on A549 cells (setting [12]); 79 % Control with A549 cells (setting [13]). Also, the “% Control of RLU value (ATP)” value with A549 cells (setting [14]) amounted to 21 % Control; in the assay with A549 cells (setting [15]) it was 53 % Control; in the assay with A549 cells (setting [16]) it was 0 % Control; with A549 cells (setting [17]), 0 % Control.

As for `CC(=O)O[C@H]1C(=O)[C@@]2(C)[C@H]([C@H](OC(=O)c3ccccc3)[C@]3(O)C[C@H](OC(=O)[C@H](O)[C@@H](NC(=O)c4ccccc4)c4ccccc4)C(C)=C1C3(C)C)[C@]1(OC(C)=O)CO[C@@H]1C[C@@H]2O` [Paclitaxel], the values for the cell density in the assay with HeLa cells [2] (0.1 μM) and with HeLa cells [2] (1 μM) were 0.9 10^4 cells/mL and 0.2 10^4 cells/mL, respectively. The “% Control of RLU value (ATP)” value with HeLa cells [3] (setting [18]) is reported as 89 % Control; with HeLa cells [3] (setting [19]), 46 % Control; in the assay with HeLa cells [3] (setting [20]) it was 15 % Control; with HeLa cells [3] (setting [21]), 5 % Control; in the assay with HeLa cells [3] (setting [22]), 2 % Control; in the assay on A549 cells (setting [23]), 93 % Control. The “% Control of RLU value (ATP)” value in the assay with A549 cells (setting [18]) worked out at 81 % Control; with A549 cells (setting [19]) it was 52 % Control; in the assay with A549 cells (setting [20]), 31 % Control; in the assay on A549 cells (setting [21]), 32 % Control; in the assay with A549 cells (setting [22]), 16 % Control.

Consider `CC(=O)Nc1cccc(-n2c(=O)n(C3CC3)c(=O)c3c(Nc4ccc(I)cc4F)n(C)c(=O)c(C)c32)c1` [Trametinib], for which the “% Control of RLU value (ATP)” value in the assay on HeLa cells [3] (setting [23]) is reported as 73 % Control; with HeLa cells [3] (setting [18]), 102 % Control; in the assay on HeLa cells [3] (setting [21]) it was 12 % Control; with HeLa cells [3] (setting [22]), 93 % Control; with HeLa cells [3] (setting [24]), 1 % Control; in the assay on HeLa cells [3] (setting [25]) it was 20 % Control. The “% Control of RLU value (ATP)” value in the assay on HeLa cells [3] (setting [4]) turned out to be 1 % Control; with HeLa cells [3] (setting [5]), 3 % Control; in the assay on A549 cells (setting [23]) it was 72 % Control; with A549 cells (setting [18]), 71 % Control; in the assay with A549 cells (setting [21]) it was 35 % Control; in the assay with A549 cells (setting [22]) it was 37 % Control. Besides, the “% Control of RLU value (ATP)” value is 2 % Control in the assay with A549 cells (setting [24]), 5 % Control in the assay with A549 cells (setting [25]), 0 % Control in the assay on A549 cells (setting [4]) and 1 % Control in the assay on A549 cells (setting [5]).
